This is an account of results in patent US8735602B2, “Pharmaceutically acceptable salts of thymodepressin and processes for their manufacture” (Apotex Technologies inc., priority 2006, dated 2014).

Common to all, as to format: physicochemical
A short description of data set [1]: Percent crystallinity by X-ray powder diffraction. Conditions: XRPD, D8 system with 2D detector; not absolute values. As to the method:
The percent crystallinity is commonly measured as a ratio between the diffraction portion from the crystalline part of the sample, Ic, and the total diffraction from the same sample, IC+B. The values of IC can be obtained after an appropriate subtraction of the scattering portion from the background, IB.
For such kind of analyses, the diffraction is measured as total area under the profile of: • the whole pattern as it is collected (one may correct for the air scattering) −ITOTAL* • the peaks only (IC) after subtraction of the background (correction for the air scattering), • the background only with correction for air scattering −(IB).
However, in this study, due to the technical problems with the D5000 point-detector diffraction system, all the samples were analyzed on a D8 system, equipped with an area, 2D detector, and the above-mentioned approach could not be applied. Therefore, another technique has been developed for measuring the crystallinity of samples analyzed on such system. Only a narrow part of the 2D diffraction image is chosen with a single peak at the centre and a neighbour area where the background will be measured.
All samples were measured for calculation of their crystallinity using a narrow range of 21°-25° with a strongest reflection at […]. The background was subtracted as linear, and an empirical correlation coefficient of 2.5 was applied.

A short description of data set [2]: Speciation plot (FIG. 5) calculation of solution pH from experimentally determined pKas. Conditions: according to the speciation plot calculation. The text has this:
A pharmaceutically acceptable salt of a drug substance is one that is chemically stable and can be used in a pharmaceutical composition. Unlike simple aromatic hydrocarbons, thymodepressin is a dipeptide with multi-functional groups. The dipeptide D-isoglutamyl-D-tryptophan has an alpha amine, two carboxylic acids and an indole nitrogen within the same molecule. An ideal salt should be one that has a solution pH close to about 7 and in the low basic pH range. Through investigations in our laboratory, in the search for a novel salt to address the shortcomings of the disodium salt of D-isoglutamyl-D-tryptophan, the speciation plot (FIG. 5) was used to determine salts with ideal solution pH and solubility that are suitable for pharmaceutical formulations. FIG. 5 is a speciation plot of H-D-iGlu-D-Trp-OH from pH 0 to 12 using experimentally determined pKas. In FIG. 5, LH2=H-D-iGlu-D-Trp-OH, LH=mono carboxylic acid salt, L=dicarboxylic acid salt, and LH3=acid addition salt of H-D-iGlu-D-Trp-OH. The X axis provides the pH of the solution, whereas the Y axis reports the amount of the species present at a particular pH. From our practical experience, we use 6 ml of water per gm of H-D-iGlu-D-Trp-OH for isolation purposes, which corresponds to a concentration of 0.5 M solution.
According to the speciation plot calculation shown in FIG. 5, the diacid form has a pH of about 2.7 to about 3 in solution. The metal salt of formula I wherein M is potassium or lithium; the divalent salt of formula II wherein B is calcium or magnesium has a solution pH close to about 7.
We have applied the speciation plot (FIG. 5) to compute the pH range of the salt forms of the dipeptide H-D-iGlu-D-Trp-OH. […] This is particular ideal for liquid formulation, sublingual tablets, nasal drops and sprays.

Data set [3] can be described thus: Hygroscopicity of the freeze-dried solid in air.
The nature of data set [4]: Stability of the solid salt. The source says:
It is extremely hygroscopic and very difficult to weigh for formulation research. In solution, as per the speciation plot (FIG. 5), the pH is above 9.0 and the solution pH must be adjusted to about 7.0 to about 7.4 in a formulation preparation.

The molecule “D-isoglutamyl-D-tryptophan calcium salt (2:1) [calcium salt of formula II]” showed a percent crystallinity in data set [1] of no more than 67%. Besides, the pH in solution result in data set [2] is reported as “about 7”.

For the molecule “disodium salt of D-isoglutamyl-D-tryptophan”, the pH in solution result in data set [2] is reported as “above 9.0”. Also, the hygroscopicity result in data set [3] is reported as “extremely hygroscopic turning into a gel in a matter of minutes in air”. For the same molecule, in data set [4], the “stability as a solid” value is reported as “less stable chemical entity as a solid”.

`NC(=O)[C@H](N)CCC(=O)N[C@H](Cc1c[nH]c2ccccc12)C(=O)[O-].[K+]` [potassium salt of formula I, D-isoglutamyl-D-tryptophan potassium salt (1:1)]: the pH in solution result in data set [2] is “about 7”.

For the molecule “Calcium Salt of D-isoglutamyl-D-tryptophan (1:2) [Example 8]”, the percent crystallinity in data set [1] is listed as 18-20%.

With “D-isoglutamyl-D-tryptophan magnesium salt (2:1) [magnesium salt of formula II]”, in data set [2], the pH in solution result is recorded as “about 7”.
